Data from ChEMBL document CHEMBL5291721, “A preclinical secondary pharmacology resource illuminates target-adverse drug reaction associations of marketed drugs” (Nat Commun, 2023).

Assays:
Androgen receptor [1] = target: T1, Androgen receptor (Rattus norvegicus, UniProt P15207); type: functional
T1 sequence (P15207 whole entry): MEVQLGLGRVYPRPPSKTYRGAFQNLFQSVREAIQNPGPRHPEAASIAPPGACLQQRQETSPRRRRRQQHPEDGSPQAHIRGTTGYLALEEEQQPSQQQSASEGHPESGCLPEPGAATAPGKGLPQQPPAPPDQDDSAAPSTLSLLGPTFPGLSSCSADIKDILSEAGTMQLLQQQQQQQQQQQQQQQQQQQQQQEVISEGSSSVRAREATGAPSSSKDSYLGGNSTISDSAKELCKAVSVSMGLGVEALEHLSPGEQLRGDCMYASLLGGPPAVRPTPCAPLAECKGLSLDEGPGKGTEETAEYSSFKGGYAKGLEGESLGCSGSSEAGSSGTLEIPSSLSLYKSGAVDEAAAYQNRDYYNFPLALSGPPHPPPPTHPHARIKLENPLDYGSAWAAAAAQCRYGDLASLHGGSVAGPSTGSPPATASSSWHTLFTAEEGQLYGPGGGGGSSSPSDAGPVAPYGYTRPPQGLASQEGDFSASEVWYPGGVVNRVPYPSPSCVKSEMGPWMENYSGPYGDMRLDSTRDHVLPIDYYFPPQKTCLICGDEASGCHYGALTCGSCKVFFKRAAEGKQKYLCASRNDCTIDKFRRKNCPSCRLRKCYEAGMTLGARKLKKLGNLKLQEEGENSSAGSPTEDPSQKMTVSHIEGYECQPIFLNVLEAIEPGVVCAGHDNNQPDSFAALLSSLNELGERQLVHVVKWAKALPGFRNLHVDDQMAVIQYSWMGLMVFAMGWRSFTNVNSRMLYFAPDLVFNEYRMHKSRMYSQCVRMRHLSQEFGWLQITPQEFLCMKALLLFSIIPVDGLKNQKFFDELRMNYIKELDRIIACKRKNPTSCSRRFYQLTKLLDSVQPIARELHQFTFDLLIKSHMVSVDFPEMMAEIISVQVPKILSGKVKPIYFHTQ

Androgen receptor [2] = target: T1, Androgen receptor; type: functional; remark: listed apart in the source
Androgen receptor [3] = target: T1, Androgen receptor
[4] = target: Gamma-aminobutyric acid receptor subunit alpha-1/alpha-2/beta-2/gamma-2 (Homo sapiens, UniProt P14867+P18507+P47869+P47870); type: functional, cell-based
[5] = target: Neurotensin receptor type 1 (Homo sapiens, UniProt P30989)
D(4) dopamine receptor = target: T2, D(4) dopamine receptor (Homo sapiens, UniProt P21917)
T2 sequence (P21917 whole entry): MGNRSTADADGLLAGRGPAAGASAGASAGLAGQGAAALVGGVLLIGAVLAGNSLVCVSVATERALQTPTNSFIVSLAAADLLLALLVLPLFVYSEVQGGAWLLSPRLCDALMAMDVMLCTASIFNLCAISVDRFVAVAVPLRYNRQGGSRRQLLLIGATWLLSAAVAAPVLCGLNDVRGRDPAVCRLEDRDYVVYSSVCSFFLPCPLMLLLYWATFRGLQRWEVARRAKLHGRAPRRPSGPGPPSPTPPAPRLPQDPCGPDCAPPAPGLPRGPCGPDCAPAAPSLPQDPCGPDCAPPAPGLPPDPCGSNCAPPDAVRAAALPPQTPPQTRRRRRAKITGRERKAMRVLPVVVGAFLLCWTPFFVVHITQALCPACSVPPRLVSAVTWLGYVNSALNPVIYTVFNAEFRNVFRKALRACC

Glucagon receptor = Glucagon receptor (Homo sapiens, UniProt P47871)
[6] = target: T3, 5-hydroxytryptamine receptor 1A (Homo sapiens, UniProt P08908)
T3 sequence (P08908 whole entry): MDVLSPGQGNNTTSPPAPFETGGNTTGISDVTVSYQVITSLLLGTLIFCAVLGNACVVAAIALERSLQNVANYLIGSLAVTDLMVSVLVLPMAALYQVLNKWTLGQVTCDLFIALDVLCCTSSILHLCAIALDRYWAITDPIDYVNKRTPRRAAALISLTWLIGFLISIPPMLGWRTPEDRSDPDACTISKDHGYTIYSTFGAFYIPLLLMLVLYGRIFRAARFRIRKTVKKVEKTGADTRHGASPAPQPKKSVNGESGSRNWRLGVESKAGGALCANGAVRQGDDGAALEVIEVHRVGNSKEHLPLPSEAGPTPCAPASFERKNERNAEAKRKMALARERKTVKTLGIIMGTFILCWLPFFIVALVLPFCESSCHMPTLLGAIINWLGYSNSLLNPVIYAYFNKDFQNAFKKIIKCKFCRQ

[7] = target: T4, Endothelin receptor type B (Homo sapiens, UniProt P24530)
T4 sequence (P24530 whole entry): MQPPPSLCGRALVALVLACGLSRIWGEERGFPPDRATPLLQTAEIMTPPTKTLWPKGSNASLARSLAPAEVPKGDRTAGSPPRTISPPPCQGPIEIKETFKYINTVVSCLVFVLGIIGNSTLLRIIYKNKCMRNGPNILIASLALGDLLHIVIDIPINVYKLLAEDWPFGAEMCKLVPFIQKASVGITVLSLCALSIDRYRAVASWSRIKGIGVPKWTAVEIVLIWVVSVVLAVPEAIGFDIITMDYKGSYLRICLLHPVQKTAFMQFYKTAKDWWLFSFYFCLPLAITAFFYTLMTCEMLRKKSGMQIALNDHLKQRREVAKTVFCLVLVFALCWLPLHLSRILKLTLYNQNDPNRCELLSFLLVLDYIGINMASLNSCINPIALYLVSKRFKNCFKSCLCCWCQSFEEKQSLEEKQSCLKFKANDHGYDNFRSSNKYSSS

[8] = target: 5-hydroxytryptamine receptor 2B (Homo sapiens, UniProt P41595)
D(1A) dopamine receptor = D(1A) dopamine receptor (Homo sapiens, UniProt P21728)
Also: assay procedure not described here.

Chain of D(1A) dopamine receptor (P21728 whole entry): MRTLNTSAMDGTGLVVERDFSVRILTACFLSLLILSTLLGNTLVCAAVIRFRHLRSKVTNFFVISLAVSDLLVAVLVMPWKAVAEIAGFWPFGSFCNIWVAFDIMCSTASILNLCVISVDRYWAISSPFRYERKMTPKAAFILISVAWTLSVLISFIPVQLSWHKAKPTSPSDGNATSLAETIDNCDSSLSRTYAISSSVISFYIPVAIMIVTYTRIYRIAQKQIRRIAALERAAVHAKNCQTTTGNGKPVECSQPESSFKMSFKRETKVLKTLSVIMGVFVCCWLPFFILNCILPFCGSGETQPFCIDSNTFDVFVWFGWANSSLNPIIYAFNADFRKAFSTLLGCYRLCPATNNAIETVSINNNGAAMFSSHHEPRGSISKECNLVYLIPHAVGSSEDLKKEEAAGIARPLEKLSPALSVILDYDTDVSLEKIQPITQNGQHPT
Chain of Gamma-aminobutyric acid receptor subunit alpha-1/alpha-2/beta-2/gamma-2 (P14867 whole entry): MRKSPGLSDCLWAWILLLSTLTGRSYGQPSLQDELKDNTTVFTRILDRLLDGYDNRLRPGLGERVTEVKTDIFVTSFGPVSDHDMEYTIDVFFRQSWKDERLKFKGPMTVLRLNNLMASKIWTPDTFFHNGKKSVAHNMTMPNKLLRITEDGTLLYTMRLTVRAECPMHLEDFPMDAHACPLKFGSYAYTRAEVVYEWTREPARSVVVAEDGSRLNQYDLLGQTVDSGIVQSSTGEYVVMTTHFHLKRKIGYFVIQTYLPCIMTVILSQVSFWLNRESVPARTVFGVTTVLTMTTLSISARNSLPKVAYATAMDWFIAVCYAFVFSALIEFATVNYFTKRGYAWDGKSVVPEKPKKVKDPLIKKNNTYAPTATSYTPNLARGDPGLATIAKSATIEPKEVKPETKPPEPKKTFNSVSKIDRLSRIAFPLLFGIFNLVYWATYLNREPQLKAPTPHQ
Chain of Gamma-aminobutyric acid receptor subunit alpha-1/alpha-2/beta-2/gamma-2 (P47870 whole entry): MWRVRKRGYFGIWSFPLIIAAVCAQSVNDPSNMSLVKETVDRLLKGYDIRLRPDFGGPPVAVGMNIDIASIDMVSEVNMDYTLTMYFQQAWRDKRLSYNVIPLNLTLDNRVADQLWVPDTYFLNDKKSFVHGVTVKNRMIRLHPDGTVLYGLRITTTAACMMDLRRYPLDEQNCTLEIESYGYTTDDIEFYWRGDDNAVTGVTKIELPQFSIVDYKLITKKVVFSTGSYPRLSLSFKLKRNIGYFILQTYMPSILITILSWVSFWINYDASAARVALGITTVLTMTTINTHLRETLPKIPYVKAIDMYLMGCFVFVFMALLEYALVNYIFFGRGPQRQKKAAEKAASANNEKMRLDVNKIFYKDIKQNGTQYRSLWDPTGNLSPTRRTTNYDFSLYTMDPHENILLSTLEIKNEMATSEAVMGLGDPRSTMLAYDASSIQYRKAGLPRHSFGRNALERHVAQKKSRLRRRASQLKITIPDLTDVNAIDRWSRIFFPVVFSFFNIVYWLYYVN
Chain of Gamma-aminobutyric acid receptor subunit alpha-1/alpha-2/beta-2/gamma-2 (P18507 whole entry): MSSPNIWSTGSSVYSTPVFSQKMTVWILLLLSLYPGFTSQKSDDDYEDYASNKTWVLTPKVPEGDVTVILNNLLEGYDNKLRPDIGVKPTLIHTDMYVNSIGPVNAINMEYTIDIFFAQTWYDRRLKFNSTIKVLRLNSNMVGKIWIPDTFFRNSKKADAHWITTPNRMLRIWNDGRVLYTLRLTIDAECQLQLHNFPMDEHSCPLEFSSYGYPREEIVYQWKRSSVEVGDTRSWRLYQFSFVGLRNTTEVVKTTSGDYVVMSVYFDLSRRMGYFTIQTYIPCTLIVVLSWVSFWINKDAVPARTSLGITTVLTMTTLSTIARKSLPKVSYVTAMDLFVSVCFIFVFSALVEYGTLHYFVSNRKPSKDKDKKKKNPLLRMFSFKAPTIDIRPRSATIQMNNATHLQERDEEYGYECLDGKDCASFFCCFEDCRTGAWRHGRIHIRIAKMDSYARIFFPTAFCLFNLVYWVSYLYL
Chain of Gamma-aminobutyric acid receptor subunit alpha-1/alpha-2/beta-2/gamma-2 (P47869 whole entry): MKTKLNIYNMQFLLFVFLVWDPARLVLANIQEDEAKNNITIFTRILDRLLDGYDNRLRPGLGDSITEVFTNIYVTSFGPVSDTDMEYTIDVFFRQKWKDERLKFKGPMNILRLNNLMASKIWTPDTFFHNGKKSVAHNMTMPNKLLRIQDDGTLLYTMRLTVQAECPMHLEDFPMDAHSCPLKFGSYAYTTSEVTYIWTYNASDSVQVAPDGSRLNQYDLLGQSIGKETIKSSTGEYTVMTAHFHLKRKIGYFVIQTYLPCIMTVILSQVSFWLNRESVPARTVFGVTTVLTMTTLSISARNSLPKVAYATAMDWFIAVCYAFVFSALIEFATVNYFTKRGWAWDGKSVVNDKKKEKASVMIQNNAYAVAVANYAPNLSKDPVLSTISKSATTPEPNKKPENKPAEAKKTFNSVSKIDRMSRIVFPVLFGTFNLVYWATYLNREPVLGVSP
Chain of 5-hydroxytryptamine receptor 2B (P41595 whole entry): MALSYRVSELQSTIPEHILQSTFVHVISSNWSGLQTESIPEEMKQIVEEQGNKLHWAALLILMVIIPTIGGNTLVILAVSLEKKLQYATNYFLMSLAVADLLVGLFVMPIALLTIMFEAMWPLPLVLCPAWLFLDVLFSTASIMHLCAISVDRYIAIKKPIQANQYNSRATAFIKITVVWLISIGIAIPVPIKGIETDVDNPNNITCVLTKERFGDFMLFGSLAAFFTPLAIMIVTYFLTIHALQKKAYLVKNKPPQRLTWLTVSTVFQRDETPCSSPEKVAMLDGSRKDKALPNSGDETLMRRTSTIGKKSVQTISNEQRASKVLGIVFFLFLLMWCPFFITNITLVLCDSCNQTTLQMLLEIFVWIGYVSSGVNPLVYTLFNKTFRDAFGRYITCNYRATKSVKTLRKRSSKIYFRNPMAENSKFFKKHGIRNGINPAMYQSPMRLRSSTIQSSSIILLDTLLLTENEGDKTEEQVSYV
Chain of Glucagon receptor (P47871 whole entry): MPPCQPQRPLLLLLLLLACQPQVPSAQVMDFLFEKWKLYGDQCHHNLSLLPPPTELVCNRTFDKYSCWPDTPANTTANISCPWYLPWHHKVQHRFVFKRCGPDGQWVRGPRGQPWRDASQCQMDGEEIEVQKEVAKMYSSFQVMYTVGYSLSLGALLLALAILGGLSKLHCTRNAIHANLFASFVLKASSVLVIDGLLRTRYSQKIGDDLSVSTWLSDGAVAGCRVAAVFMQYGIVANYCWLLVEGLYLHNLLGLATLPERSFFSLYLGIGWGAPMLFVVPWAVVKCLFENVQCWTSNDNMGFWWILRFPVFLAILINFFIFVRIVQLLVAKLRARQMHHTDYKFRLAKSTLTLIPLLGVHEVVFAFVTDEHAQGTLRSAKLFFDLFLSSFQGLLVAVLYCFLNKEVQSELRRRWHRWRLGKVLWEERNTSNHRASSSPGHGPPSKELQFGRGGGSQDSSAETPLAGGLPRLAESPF
Chain of Neurotensin receptor type 1 (P30989 whole entry): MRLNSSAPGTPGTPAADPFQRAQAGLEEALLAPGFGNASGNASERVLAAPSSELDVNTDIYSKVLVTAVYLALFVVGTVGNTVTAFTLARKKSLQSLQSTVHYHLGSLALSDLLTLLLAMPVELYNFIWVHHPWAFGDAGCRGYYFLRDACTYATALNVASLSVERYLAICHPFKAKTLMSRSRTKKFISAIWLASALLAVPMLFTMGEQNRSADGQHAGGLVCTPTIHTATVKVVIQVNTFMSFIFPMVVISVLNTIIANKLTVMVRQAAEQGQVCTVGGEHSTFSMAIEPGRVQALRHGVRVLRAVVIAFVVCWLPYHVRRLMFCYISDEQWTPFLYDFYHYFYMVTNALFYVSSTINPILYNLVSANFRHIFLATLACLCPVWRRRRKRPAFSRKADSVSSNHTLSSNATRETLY

SMILES | AC50 (Androgen receptor [3]) [µM] | AC50 (D(4) dopamine receptor) [µM] | AC50 (Glucagon receptor) [µM] | AC50 [6] [µM] | AC50 [7] [µM] | AC50 [8] [µM] | AC50 (D(1A) dopamine receptor) [µM] | other results
C[N+](C)(C)CCOP(=O)([O-])OC[C@H](O)CO | – | – | – | – | – | – | – | AC50 (Androgen receptor [1]): > 30 µM; AC50 (Androgen receptor [2]): > 30 µM
CN(C)Cc1nnc2n1-c1ccc(Cl)cc1C(c1ccccc1)=NC2 [ADINAZOLAM] | > 10 | – | – | – | – | – | – | –
CN(C)C/C=C/C(=O)Nc1cc2c(Nc3ccc(F)c(Cl)c3)ncnc2cc1O[C@H]1CCOC1 [AFATINIB] | – | – | – | – | – | – | – | AC50 (Androgen receptor [1]): > 30 µM; AC50 [4]: > 30 µM; AC50 (Androgen receptor [2]): > 30 µM
Cc1ccccc1-n1c(CF)nc2ccc(N)cc2c1=O [AFLOQUALONE] | > 30 | – | – | – | – | – | – | –
CCC1(c2ccc(N)cc2)CCC(=O)NC1=O (stereo unspecified) [AMINOGLUTETHIMIDE] | – | – | – | – | – | – | – | AC50 (Androgen receptor [1]): > 30 µM; AC50 [4]: > 30 µM; AC50 (Androgen receptor [2]): > 30 µM
O=C(/C=C/c1cccc(S(=O)(=O)Nc2ccccc2)c1)NO [BELINOSTAT] | > 30 | > 10 | > 10 | > 10 | > 10 | > 10 | > 10 | AC50 [5]: > 10 µM
CC(O)(CS(=O)(=O)c1ccc(F)cc1)C(=O)Nc1ccc(C#N)c(C(F)(F)F)c1 (stereo unspecified) [BICALUTAMIDE] | – | > 10 | > 30 | > 10 | > 30 | > 10 | > 10 | AC50 [5]: > 30 µM
O=C(O)COCCN1CCN(C(c2ccccc2)c2ccc(Cl)cc2)CC1 (stereo unspecified) [CETIRIZINE] | – | > 10 | > 30 | > 10 | > 30 | – | – | AC50 [5]: > 30 µM
NC[C@H]1CC[C@H](C(=O)Oc2ccc(CCC(=O)O)cc2)CC1 [CETRAXATE] | – | – | – | – | – | – | – | AC50 [4]: > 30 µM
CC(=O)O[C@]1(C(C)=O)CC[C@H]2[C@@H]3C=C(Cl)C4=CC(=O)[C@@H]5C[C@@H]5[C@]4(C)[C@H]3CC[C@@]21C [CYPROTERONE ACETATE] | – | – | – | > 10 | – | > 10 | > 10 | –
C[C@@H]1C[C@H]2[C@@H]3C[C@H](F)C4=CC(=O)C=C[C@]4(C)[C@@]3(F)[C@@H](O)C[C@]2(C)[C@@]1(OC(=O)c1ccco1)C(=O)SCF [FLUTICASONE FUROATE] | – | > 10 | > 10 | > 10 | > 10 | > 10 | > 10 | –
COc1ccc([C@@H]2CC(=O)c3c(O)cc(O)cc3O2)cc1O [HESPERETIN] | > 10 | – | – | – | – | – | – | –
